Columns and labels:
Test in all cases: agar diffusion method using a paper disk
[1] = tested on: Bacillus subtilis (KCTC1021); conditions: 2.5 mg/ml, 48 hours
Description: (§1) In order to measure the antibacterial activities of the Cannabis sativa L. extract (CE) and extract mixtures AM1 to AM6 produced in Production Example 1, a modification of the agar diffusion method (Piddock, L. J. V, Techniques used for the determination of antimicrobial resistance and sensitivity in bacteria, J. Appl. Bacteriol, 68, p. 307, 1990) using a paper disk was performed as follows.
(§2) The bacterial strains were used after subculture (Candida albicans: 24° C., Bacillus subtilis: 30° C., Streptococcus mutans: 37° C., Staphylococcus aureus: 37° C., and Escherichia coli: 37° C.).
(§3) One loop of each of the prepared strains was taken and inoculated in 5 ml of saline, and 1 ml of each of the active solutions was inoculated into a 4 to 5-mm-thick medium (Candida albicans—YM Agar (271210. BD), Bacillus subtilis—Nutrient Agar (213000 BD), Streptococcus mutans—Brain Heart (241830 BD), Staphylococcus aureus—Tryptic Soy Agar (236950 BD), Escherichia coli—Nutrient Agar (213000 BD); incubator: EYELA Multi-Thermo incubator MTI-202), and then spread evenly with a bent glass rod. […]
(§4) The solvent of each injected extract mixture was volatilized, and incubation was performed at 37° C. for 48 hours. Then, the diameter of the inhibition zone formed around each paper disc was measured. […]

[2] = tested on: Escherichia coli (KCTC7039); conditions: 2.5 mg/ml, 48 hours
Description: as §1, §2, §3, §4

[3] = tested on: Candida albicans (KCTC7270); conditions: 2.5 mg/ml, 48 hours
Description: as §1, §2, §3, §4

[4] = tested on: Staphylococcus aureus (KCTC1621); conditions: 2.5 mg/ml, 48 hours
Description: as §1, §2, §3, §4

[5] = tested on: Streptococcus mutans (KCTC3065)
Description: as §1, §2, §3, §4

SMILES: COc1ccc(O)c(C(C)(C)C)c1 [BHA, butylated hydroxyanisole]
- Inhibition zone [1]: 16.6 mm
- Inhibition zone [2]: 18.4 mm
- Inhibition zone [3]: 16.0 mm
- Inhibition zone [4]: 16.0 mm
- Inhibition zone ([5]; Streptococcus mutans, 2.5 mg/ml, 48 hours): 3.5 mm
- antibacterial effect (in words) ([5]; against S. mutans): little antibacterial effect

— US20220016193A1, “ANTIBACTERIAL AND ANTIVIRUS COMPOSITION COMPRISING Extract of CANNABIS SATIVA L” (FAMENITY CO., LTD., priority 2020, published 2022)
